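Cultured in 96-well plates, cells were exposed to test compound for 48 hours across five concentrations. Abbreviation: GI50, concentration required for 50% inhibition of growth.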 Active and inactive are the calls of the source. Rule as the data show it: active = GI50 up to about 1.1 µM and inactive = higher.

Among the test systems are EKVX; OVCAR-8; MOLT-4; CAKI-1; Malme-3M; A498; NCI-H522; M14; U-251; 786-0; CCRF-CEM; NCI-H226; COLO 205; SK-MEL-2; DLD-1; SK-MEL-28; RXF 393.
Holding throughout (assay): NCI tumour cell line growth inhibition, 48 h

Turning to `CCOC(=O)CC(=O)ON(C)C(C)=O`, the GI50 with EKVX, in the assay with OVCAR-8, in the assay with MOLT-4, in the assay with CAKI-1, with Malme-3M and in the assay with A498 was > 100 µM (inactive) throughout. For the same compound, the GI50 in the assay with NCI-H522, with M14, with U-251, with 786-0, in the assay on CCRF-CEM and in the assay with NCI-H226 was > 100 µM (inactive) in each case. For the same compound, the GI50 in the assay with COLO 205, in the assay on SK-MEL-2 and with DLD-1 was > 100 µM (inactive) each time.
Consider `COc1ccc(C2Oc3cc(OC)c(OC)cc3C2CCl)cc1OC` (centres undefined), for which the GI50 in the assay with EKVX is > 100 µM (inactive); with OVCAR-8, > 100 µM (inactive); in the assay on MOLT-4 it was > 100 µM (inactive); in the assay on CAKI-1 it was > 100 µM (inactive); with Malme-3M, > 100 µM (inactive); with A498, 73.5 µM (inactive). Moreover, the GI50 in the assay with SK-MEL-28 was > 100 µM (inactive); in the assay on NCI-H522, > 100 µM (inactive); in the assay on M14, > 100 µM (inactive); with U-251, > 100 µM (inactive); with 786-0, 56.8 µM (inactive); in the assay with CCRF-CEM, > 100 µM (inactive). For the same compound, the GI50 was > 100 µM (inactive) in the assay on NCI-H226, > 100 µM (inactive) in the assay with COLO 205, > 100 µM (inactive) in the assay with SK-MEL-2 and 67.5 µM (inactive) with DLD-1.
On to `CCN(CC)CCN(C)CC(C)(C)C(=O)/C=C/c1ccccc1`, for which the GI50 with EKVX is 13.1 µM (inactive); in the assay with OVCAR-8, 15.8 µM (inactive); in the assay on MOLT-4 it was 5.16 µM (inactive); in the assay on CAKI-1, 11.8 µM (inactive); in the assay on Malme-3M, 13.4 µM (inactive); with A498, 4.11 µM (inactive). Besides, the GI50 with SK-MEL-28 was 16 µM (inactive); with NCI-H522, 9.77 µM (inactive); in the assay on M14, 13 µM (inactive); in the assay on U-251 it was 10.4 µM (inactive); in the assay on 786-0 it was 15.8 µM (inactive); in the assay on CCRF-CEM it was 4.99 µM (inactive). For the same compound, the GI50 in the assay with NCI-H226 is 17.1 µM (inactive); with COLO 205, 13.7 µM (inactive); with SK-MEL-2, 11.7 µM (inactive); in the assay on DLD-1, 5.46 µM (inactive).
For `CCOC(=O)NC(=O)c1c[nH]c(=O)[nH]c1=O`, the GI50 with EKVX, in the assay on OVCAR-8, in the assay on MOLT-4, in the assay with CAKI-1, in the assay with Malme-3M and in the assay with A498 was > 100 µM (inactive) each time. For the same compound, the GI50 in the assay on SK-MEL-28, with M14, in the assay with U-251, in the assay on 786-0, in the assay on CCRF-CEM and with NCI-H226 was > 100 µM (inactive) in each case. In addition, the GI50 in the assay with COLO 205, with SK-MEL-2 and in the assay with DLD-1 was > 100 µM (inactive) each time.
As to `N=C(N)NS(=O)(=O)c1ccc(NCCc2c3ccccc3nc3ccccc23)cc1`, the GI50 in the assay on RXF 393 was > 100 µM (inactive); with EKVX, > 100 µM (inactive); in the assay with OVCAR-8, > 100 µM (inactive); with MOLT-4, 22.8 µM (inactive); in the assay on CAKI-1, 87.1 µM (inactive); in the assay on Malme-3M, > 100 µM (inactive). In addition, the GI50 is > 100 µM (inactive) in the assay on SK-MEL-28; > 100 µM (inactive) in the assay on NCI-H522; > 100 µM (inactive) in the assay with M14; > 100 µM (inactive) with U-251; > 100 µM (inactive) in the assay on 786-0; 94 µM (inactive) in the assay on CCRF-CEM. Besides, the GI50 in the assay on NCI-H226 was > 100 µM (inactive); in the assay with COLO 205 it was 76 µM (inactive); in the assay with SK-MEL-2 it was > 100 µM (inactive); with DLD-1, > 100 µM (inactive).
For `CCC12CCCN(Cc3ccccc3)C1c1c(n(C)c3ccccc13)C(CO)C2` (centres undefined), the GI50 with RXF 393 is 72.1 µM (inactive); with EKVX, 71.9 µM (inactive); in the assay on OVCAR-8, 63.4 µM (inactive); in the assay with MOLT-4 it was 22.4 µM (inactive); in the assay on CAKI-1, 92.7 µM (inactive); in the assay on Malme-3M it was 46.6 µM (inactive). Further, the GI50 is 61 µM (inactive) in the assay on SK-MEL-28; 30.8 µM (inactive) in the assay on NCI-H522; 49.3 µM (inactive) in the assay with U-251; 44.1 µM (inactive) in the assay with 786-0; 83 µM (inactive) with CCRF-CEM; 34.3 µM (inactive) in the assay with NCI-H226. For the same compound, the GI50 was 38 µM (inactive) in the assay on COLO 205, 55.7 µM (inactive) in the assay with SK-MEL-2 and 61.5 µM (inactive) in the assay with DLD-1.
Turning to `CCOC(=O)C1N(S(=O)(=O)c2ccc(C)cc2)CCC12C(c1ccc(OC)c(OC)c1)=Nc1ccccc12` (centres undefined), the GI50 in the assay on RXF 393 is 49.3 µM (inactive); with EKVX it was > 100 µM (inactive); in the assay with OVCAR-8 it was > 100 µM (inactive); with CAKI-1 it was > 100 µM (inactive); with Malme-3M, > 100 µM (inactive); in the assay with A498, > 100 µM (inactive). In addition, the GI50 with SK-MEL-28, with NCI-H522, with M14, in the assay with U-251, with 786-0 and in the assay with CCRF-CEM was > 100 µM (inactive) throughout. The GI50 in the assay with NCI-H226, in the assay with COLO 205 and with DLD-1 was > 100 µM (inactive) in each case.
For `CCOC(=O)C1(C)CCC(C(C(=O)O)C(=O)O)CC1=O` (centres undefined), the GI50 in the assay on RXF 393, with EKVX, with OVCAR-8, in the assay with MOLT-4, in the assay on CAKI-1 and in the assay with Malme-3M was > 100 µM (inactive) each time. The GI50 in the assay on A498, with SK-MEL-28, in the assay with NCI-H522, in the assay with M14, in the assay with U-251 and in the assay with 786-0 was > 100 µM (inactive) each time. Moreover, the GI50 in the assay on CCRF-CEM, with NCI-H226, in the assay on COLO 205 and in the assay with DLD-1 was > 100 µM (inactive) throughout.
Regarding `CCCCN(CCCC)c1c([N+](=O)[O-])c(=O)nc2ccccn12`, the GI50 in the assay on EKVX was 32.8 µM (inactive); in the assay with OVCAR-8, 27.5 µM (inactive); in the assay on MOLT-4, 37.7 µM (inactive); with CAKI-1, > 10 µM (inactive); with Malme-3M, > 100 µM (inactive); with A498, 22.3 µM (inactive). Moreover, the GI50 in the assay with SK-MEL-28 is 13.7 µM (inactive); in the assay on NCI-H522 it was 17.6 µM (inactive); in the assay with M14, 27.9 µM (inactive); in the assay on U-251, 38.8 µM (inactive); in the assay on 786-0, 34 µM (inactive); in the assay on CCRF-CEM it was 44.6 µM (inactive). The GI50 with NCI-H226 was 75.3 µM (inactive); in the assay with COLO 205, 45.5 µM (inactive); with SK-MEL-2 it was 31 µM (inactive); in the assay with DLD-1, 35.4 µM (inactive).
As to `C[Si](C)(C)C(Sc1ccccc1)(Sc1ccccc1)Sc1ccccc1`, the GI50 was 29.4 µM (inactive) in the assay on RXF 393; 95.5 µM (inactive) in the assay with EKVX; > 100 µM (inactive) with OVCAR-8; 4.28 µM (inactive) with MOLT-4; > 100 µM (inactive) in the assay with CAKI-1; 76.9 µM (inactive) with A498. Further, the GI50 is 46.7 µM (inactive) with SK-MEL-28; 57.7 µM (inactive) with U-251; > 100 µM (inactive) in the assay on 786-0; 24 µM (inactive) in the assay with CCRF-CEM; 62.2 µM (inactive) in the assay on COLO 205; 25.9 µM (inactive) in the assay with SK-MEL-2. Further, in the assay on DLD-1, the GI50 is 53.6 µM (inactive).
On to `CC(=O)NC1=C(NCc2ccc(Cl)cc2)C(=O)c2ccccc2C1=O`, for which the GI50 with RXF 393 is 4.24 µM (inactive); in the assay on EKVX it was 7.62 µM (inactive); in the assay with OVCAR-8, 7.45 µM (inactive); in the assay with MOLT-4, 2.38 µM (inactive); in the assay on Malme-3M, 9.4 µM (inactive); in the assay on SK-MEL-28 it was 5.5 µM (inactive). The GI50 was 0.986 µM (active) with NCI-H522; 7.01 µM (inactive) in the assay on M14; 6.7 µM (inactive) in the assay on U-251; 8.77 µM (inactive) in the assay with 786-0; 8.53 µM (inactive) in the assay on CCRF-CEM; 9.59 µM (inactive) in the assay with NCI-H226. Besides, the GI50 with COLO 205 was 5.4 µM (inactive); in the assay with SK-MEL-2 it was 5.62 µM (inactive); with DLD-1 it was 6.76 µM (inactive).
`Cc1cc(C)nc(NS(=O)(=O)c2ccc(NC(=O)c3ccc(Cl)c4c(Nc5ccc(S(=O)(=O)N=C(N)N)cc5)c5ccccc5nc34)cc2)n1`: the GI50 in the assay on RXF 393 was > 10 µM (inactive); with EKVX, > 100 µM (inactive); in the assay with OVCAR-8, 8.65 µM (inactive); in the assay on MOLT-4 it was 19.5 µM (inactive); with CAKI-1 it was > 100 µM (inactive); in the assay with Malme-3M, > 100 µM (inactive). Also, the GI50 in the assay on A498 was > 100 µM (inactive); in the assay with SK-MEL-28, 58.9 µM (inactive); with NCI-H522, 16.1 µM (inactive); in the assay on M14 it was > 100 µM (inactive); in the assay on U-251, 34.8 µM (inactive); with 786-0, 32.7 µM (inactive). The GI50 with NCI-H226 is > 100 µM (inactive); with COLO 205, 61.5 µM (inactive); in the assay on DLD-1 it was 7.67 µM (inactive).
As for `CC(C)N(C(=O)c1cccc(C(=O)N(C(C)C)C(C)C)c1)C(C)C`, the GI50 in the assay on EKVX, in the assay with OVCAR-8, with MOLT-4, with CAKI-1, in the assay with Malme-3M and in the assay on A498 was > 100 µM (inactive) each time. Moreover, the GI50 with SK-MEL-28, with NCI-H522, with M14, with U-251, in the assay with 786-0 and with CCRF-CEM was > 100 µM (inactive) each time. Also, the GI50 in the assay on NCI-H226, with COLO 205, in the assay on SK-MEL-2 and in the assay on DLD-1 was > 100 µM (inactive) in each case.

The values are drawn from ChEMBL document CHEMBL1201862, “PubChem BioAssay data set” (2004).
